Experimental data: patent publication US12458605B2, “Lipid nanoparticle” (National University Corporation Hokkaido University, priority 2020, dated 2025)
Several values for one entry are separate records, joined by “and”; a condition that tells them apart may be missing. Equal values may be shown once.

Legend:
[1] = tested on: liver; assay: In vivo Fluc activity of FlucmRNA-loaded LNP by in vivo imaging, liver; details: Balb/c mice, 6 hours; for Fluc Activity in liver: FlucmRNA-loaded LNP i.v. 0.1 mg mRNA/kg
In short: (§1)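 Female Balb/c mice, 7 weeks old, received LNP i.v. at 0.1 mg mRNA/kg. At 6 h, luciferin was given via tail vein at 1.5 mg per mouse, and liver and spleen luminescence was imaged as Avg Radiance [p/s/cm2/sr] near 560 nm.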

[2] = siRNA/mRNA encapsulation rate by Ribogreen reagent (section IV); type: physicochemical; details: for % siRNA encapsulation: F7siRNA-loaded LNP, 50:10:38.5:1.5, N/P ratio 6; for % mRNA encapsulation: FlucmRNA-loaded LNP, 50:10:38.5:1.5
In short: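 LNPs diluted in TE buffer to 8 μg/mL nucleic acid for surface RNA, or to 1.2 μg/mL with 1% Triton X-100 for total RNA. RiboGreen fluorescence (ex 485/em 528 nm) quantified against a Triton-containing standard curve (0-2.5 μg/mL). Encapsulation % = (total − surface)/total × 100.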

[3] = tested on: F7; assay: In vivo F7 knockdown, plasma F7 enzyme activity (BIOPHEN FVII), Balb/c mice; details: i.v. 0.025 mg siRNA/kg, plasma at 24 hours; for F7 enzyme activity (%): untreated mice as 100%
In short: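 Female Balb/c mice, 5 weeks old, received F7 siRNA lipid nanoparticles i.v. at 0.025 mg siRNA/kg; plasma F7 activity measured chromogenically (BIOPHEN FVII) 24 h later. Values are % of untreated mice, also expressed as a ratio to MC3-containing nanoparticles set at 1.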

[4] = pDNA encapsulation rate by Picogreen reagent; type: physicochemical; details: pDNA (eGFP)-loaded LNP
Protocol: The encapsulation rate of pDNA of the lipid nanoparticles was measured using Picogreen (registered trademark) reagent (Quant-iT™ dsDNA Assay Kit, broad range, manufactured by Thermofisher Scientific). In encapsulation rate measurement of pDNA, the nucleic acid concentration in solution for measuring nanoparticle surface nucleic acid concentration was set at 1.6 μg/mL, the nucleic acid concentration in solution for measuring total nucleic acid concentration […], and the nucleic acid concentration used for calibration curve 0-0.5 μg/mL, and the same method as the method for measuring encapsulation rate of siRNA and mRNA was carried out except that Picogreen (registered trademark) reagent (Quant-iT™ dsDNA Assay Kit, broad range, manufactured by Thermofisher Scientific) was used as measurement reagent. Encapsulation rate %=(nucleic acid concentration in solution for measuring total nucleic acid concentration (μg/mL)−nucleic acid concentration in solution for measuring nanoparticle surface nucleic acid concentration (μg/mL))/(nucleic acid concentration in solution for measuring total nucleic acid concentration (μg/mL))×100. <Results>

[5] = Stability of pDNA-loaded LNP standing at 40° C.; type: physicochemical; details: for Quality 40° C. 1 M / Quality 40° C. 1 W: pDNA-loaded LNP; for Particle size (nm), 40° C. 1 M / encapsulation rate (%), 40° C. 1 M: pDNA-loaded LNP after standing at 40° C. 1 M; for Particle size (nm), 40° C. 1 W / encapsulation rate (%), 40° C. 1 W: pDNA-loaded LNP after standing at 40° C. 1 W
Protocol: Prepared lipid nanoparticles were allowed to stand at 40° C., and after keeping for each period, they were evaluated whether quality was well remained according to the following criteria: • Good (O): particle size is within +/−20 nm of the particle size immediately after preparation, and PDI is 0.2 or less, and encapsulation rate is 80% or more; • No good (X): particle size is greater than +/−20 nm of the particle size immediately after preparation, or encapsulation rate is less than 80%.
The lipid nanoparticles which remain in good quality with standing at 40° C. for one week or more can be evaluated as having excellent stability.

[6] = Storage stability of FlucmRNA-loaded LNP at −80, 5, 25 and 40° C.; type: physicochemical; details: for period for which quality remained good, −80° C.: maximum storage period 1 week; for period for which quality remained good, 5° C. / period for which quality remained good, 25° C. / period for which quality remained good, 40° C. (weeks): maximum storage period 5 weeks
In short: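 FlucmRNA-loaded LNPs held at −80, 5, 25 or 40° C; at each time point size, PDI and encapsulation measured. Quality deemed maintained while size stays within ±20 nm of preparation day, PDI ≤0.2 and encapsulation ≥80%; value is the period meeting all three.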

[7] = tested on: spleen; assay: In vivo Fluc activity of FlucmRNA-loaded LNP by in vivo imaging, spleen; details: Balb/c mice, 6 hours; for Fluc activity in the spleen, compared with CL4F6: 0.1 mg mRNA/kg, versus LNP comprising CL4F6 (Tables 5 and 6); for Fluc Activity in spleen: FlucmRNA-loaded LNP i.v. 0.1 mg mRNA/kg
In short: as §1

[8] = Average particle size (ζ-Average) and PDI by dynamic light scattering (Zetasizer Nano ZSP); type: physicochemical; details: for Particle size (nm), immediately after the preparation: pDNA (eGFP)-loaded LNP
In short: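 Lipid nanoparticles dispersed in PBS(−) were sized by dynamic light scattering, giving the ζ-Average diameter and polydispersity index (PDI).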

[9] = tested on: factor VII (F7); details: mouse liver; lipid as LNP carrier of siRNA; cited from earlier work
[10] = F7siRNA-loaded LNP, 50:10:38.5:1.5, N/P ratio 6
[11] = FlucmRNA-loaded LNP, 50:10:38.5:1.5
[12] = FlucmRNA-loaded LNP, lipid:DSPC:cholesterol:DMG-PEG2K 50:10:38.5:1.5

Compound	Fluc Activity in liver [1]	% siRNA encapsulation [2]	% mRNA encapsulation [2]	F7 enzyme activity (%) [3] [%]	encapsulation rate (%), immediately after the preparation [4] [%]	Quality 40° C. 1 M [5]	Quality 40° C. 1 W [5]	Particle size (nm), 40° C. 1 M [5] [nm]	encapsulation rate (%), 40° C. 1 M [5] [%]	Particle size (nm), 40° C. 1 W [5] [nm]	encapsulation rate (%), 40° C. 1 W [5] [%]	period for which quality remained good, −80° C. [6] [week]	period for which quality remained good, 5° C. [6] [weeks]	period for which quality remained good, 25° C. [6] [weeks]	period for which quality remained good, 40° C. (weeks) [6]	Fluc Activity in spleen [7]	PDI [8, 10]	ζ-Average (nm) [8, 10]	PDI [8, 11]	ζ-Average (nm) [8, 12]	also measured
CCCCCCC(CCCC)C(=O)OCCCCCCC(O)(CCCCCCOC(=O)C(CCCC)CCCCCC)CCCCN(CCC)CCC (stereo not drawn) [CL4F 8-4]	6.09E+07 Avg Radiance [p/s/cm2/sr]	100.0%	99.7%	5.6	98.0	∘	∘	116.4	98.1	109.1	97.8	1	5	5	1 week weeks	1.41E+07 Avg Radiance [p/s/cm2/sr]	0.006	110.00 nm	0.020	101.60 nm	Fluc activity in the spleen, compared with CL4F6 [7]: higher Fluc activity; Particle size (nm), immediately after the preparation ([8]; 50:10:38.5:1.5): 104.7 nm
CCCCCCCCC(CCCCC)C(=O)OCCCCCCC(O)(CCCCCCOC(=O)C(CCCCC)CCCCCCCC)CCCCN(CCC)CCC (stereo not drawn) [CL4F 10-5]	1.06E+08 Avg Radiance [p/s/cm2/sr]	100.1%	99.7%	3	98.2	∘	∘	104.2	98.5	101.0	98.3	1	5	5	5 weeks	4.64E+06 Avg Radiance [p/s/cm2/sr]	0.006	98.70 nm	0.021	84.62 nm	Fluc activity in the spleen, compared with CL4F6 [7]: higher Fluc activity; Particle size (nm), immediately after the preparation ([8]; 50:10:38.5:1.5): 101.6 nm
CCCCC/C=C\C/C=C\CCCCCCCCC(CCCCCCCC/C=C\C/C=C\CCCCC)OC(=O)CCCN(C)C [MC3, D-Lin-MC3-DMA, reference compound]		99.1% and 97.6%	99.0% and 99.04%	2.5								0	0	1	0 weeks			81.68 nm and 85.73 nm and 87.69 nm	0.042 and 0.072	68.60 nm and 71.49 nm	F7 enzyme activity (Ratio using MC3 as 1) ([3]; relative plasma F7 activity of MC3 LNP as 1): 1; ED50 in F7 knockdown [9]: 0.005 mg siRNA/kg
CCCCCCCC(CCCCCCC)C(=O)OCCCCCCC(O)(CCCCCCOC(=O)C(CCCCCCC)CCCCCCC)CCCCN(CCC)CCC [CL4F 9-7]	1.55E+08 Avg Radiance [p/s/cm2/sr]	99.9%	99.2%	4.3	98.1	∘	∘	101.4	98.1	97.1	98.0	1	5	5	5 weeks	2.43E+06 Avg Radiance [p/s/cm2/sr]	0.020	97.03 nm	0.004	81.30 nm	Fluc activity in the liver, compared with CL4F6 ([1]; 0.1 mg mRNA/kg, versus LNP comprising CL4F6 (Tables 5 and 6)): higher Fluc activity; Particle size (nm), immediately after the preparation ([8]; 50:10:38.5:1.5): 98.2 nm
